T1: ANT1 (Bos taurus, UniProt P02722)
T1 sequence (P02722 2-298): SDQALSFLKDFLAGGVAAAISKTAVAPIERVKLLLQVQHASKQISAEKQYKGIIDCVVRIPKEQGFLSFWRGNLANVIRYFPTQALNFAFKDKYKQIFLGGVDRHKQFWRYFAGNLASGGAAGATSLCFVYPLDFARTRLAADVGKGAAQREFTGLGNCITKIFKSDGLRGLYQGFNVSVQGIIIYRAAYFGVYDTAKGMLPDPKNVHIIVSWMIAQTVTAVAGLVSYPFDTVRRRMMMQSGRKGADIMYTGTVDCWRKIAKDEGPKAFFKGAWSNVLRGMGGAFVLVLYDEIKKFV

T2: UCP4:ANT1 heterotetramer (1:1) (Homo sapiens; Bos taurus, UniProt O95847+P02722)
T2 construct: gene SLC25A27; co-reconstituted 1:1 in liposomes from purified N-terminally His6-tagged monomers (bovine ANT1, human UCP4); heterotetramer
T2 sequence (O95847 1-323): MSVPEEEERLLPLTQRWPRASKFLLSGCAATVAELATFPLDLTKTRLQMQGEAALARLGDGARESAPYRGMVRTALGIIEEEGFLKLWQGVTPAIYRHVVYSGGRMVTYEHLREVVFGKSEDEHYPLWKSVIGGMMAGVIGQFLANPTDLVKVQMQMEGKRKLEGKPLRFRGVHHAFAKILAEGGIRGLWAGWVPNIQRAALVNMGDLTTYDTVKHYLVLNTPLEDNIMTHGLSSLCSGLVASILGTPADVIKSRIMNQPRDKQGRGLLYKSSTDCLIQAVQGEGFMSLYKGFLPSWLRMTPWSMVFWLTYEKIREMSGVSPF
T2 sequence (P02722 2-298): T1 sequence (P02722 2-298)

T3: UCP2:ANT1 heterotetramer (1:1) (Homo sapiens; Bos taurus, UniProt P02722+P55851)
T3 construct: co-reconstituted 1:1 in liposomes from purified N-terminally His6-tagged monomers (bovine ANT1, human UCP2); heterotetramer
T3 sequence (P55851 1-309): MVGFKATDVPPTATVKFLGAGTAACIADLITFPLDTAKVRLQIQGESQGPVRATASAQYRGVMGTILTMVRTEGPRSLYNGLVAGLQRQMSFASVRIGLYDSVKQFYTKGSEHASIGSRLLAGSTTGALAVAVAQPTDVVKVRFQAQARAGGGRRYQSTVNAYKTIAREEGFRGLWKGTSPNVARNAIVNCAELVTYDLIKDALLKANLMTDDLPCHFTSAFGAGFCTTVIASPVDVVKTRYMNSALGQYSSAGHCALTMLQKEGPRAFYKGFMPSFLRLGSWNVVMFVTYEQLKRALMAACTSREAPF
T3 sequence (P02722 2-298): T1 sequence (P02722 2-298)

T4: UCP2 (Homo sapiens, UniProt P55851)
T4 construct: full length, N-terminal His6 tag kept, pelB leader removed; E. coli membranes; homotetramer in liposomes
T4 sequence (P55851 1-309): T3 sequence (P55851 1-309)

T5: UCP4 (Homo sapiens, UniProt O95847)
T5 construct: gene SLC25A27; full length, N-terminal His6 tag kept, pelB leader removed; E. coli membranes; homotetramer in liposomes
T5 sequence (O95847 1-323): T2 sequence (O95847 1-323)

T6: PiT (PiT-B) (Homo sapiens, UniProt Q00325)
T6 construct: gene SLC25A3; isoform B, N-terminal His6 tag kept, pelB leader removed; E. coli membranes; mainly monomer in liposomes
T6 sequence (Q00325 50-361 isoform Q00325-2): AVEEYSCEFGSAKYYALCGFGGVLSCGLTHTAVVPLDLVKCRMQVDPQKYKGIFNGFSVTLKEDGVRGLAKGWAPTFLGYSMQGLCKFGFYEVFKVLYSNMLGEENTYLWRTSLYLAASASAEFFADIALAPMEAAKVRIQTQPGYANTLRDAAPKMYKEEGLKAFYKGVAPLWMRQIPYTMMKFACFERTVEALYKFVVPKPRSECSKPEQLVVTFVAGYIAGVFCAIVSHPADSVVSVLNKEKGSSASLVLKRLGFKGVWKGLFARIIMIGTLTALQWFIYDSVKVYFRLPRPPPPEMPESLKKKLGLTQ

B1: adenine nucleotide translocase 1 (ANT1), recombinant His6-tagged (natural protein, bovine)
chain: T1 sequence (P02722 2-298)
notes: bovine ANT1, UniProt P02722; Cloned in pET26b(+); also called ADP/ATP carrier; AAC; source: E. coli BL21 (DE3) or BL21 CodonPlus (DE3)-RIPL, extracted from bacterial membranes, purified (Ni-NTA IMAC, 1% OG); not shown: pelB leader, N-terminal, cleaved; His6, N-terminal, kept
B2: uncoupling protein 2 (UCP2), recombinant His6-tagged (natural protein, human, UniProt P55851 1-309, looked up)
chain: T3 sequence (P55851 1-309)
notes: human UCP2, UniProt P55851; Cloned in pET26b(+); purified as a monomer in OG, tetramer after reconstitution in liposomes; source: E. coli BL21 (DE3) or BL21 CodonPlus (DE3)-RIPL, extracted from bacterial membranes, purified (Ni-NTA IMAC, 1% OG); not shown: pelB leader, N-terminal, cleaved; His6, N-terminal, kept
B3: uncoupling protein 4 (UCP4), recombinant His6-tagged (natural protein, human, UniProt O95847 1-323, looked up)
chain: T2 sequence (O95847 1-323)
notes: human UCP4, UniProt O95847; Cloned in pET26b(+); purified as a monomer in OG, tetramer after reconstitution in liposomes; source: E. coli BL21 (DE3) or BL21 CodonPlus (DE3)-RIPL, extracted from bacterial membranes, purified (Ni-NTA IMAC, 1% OG); not shown: pelB leader, N-terminal, cleaved; His6, N-terminal, kept

What was measured:
ANT1 [1] = target: T1, ANT1; parameters: gene SLC25A4; conditions: 500 uM ATP; EYPC without added cardiolipin, 100 uM palmitic acid, valinomycin, pH 7.2, 25 C
[2] = target: T2, UCP4:ANT1 heterotetramer (1:1); type: biochemical; conditions: 500 uM ATP; EYPC without added cardiolipin, 100 uM palmitic acid, valinomycin, pH 7.2, 25 C
[3] = target: T3, UCP2:ANT1 heterotetramer (1:1); type: biochemical; conditions: 500 uM ATP; EYPC without added cardiolipin, 100 uM palmitic acid, valinomycin, pH 7.2, 25 C
UCP2 [4] = target: T4, UCP2; test: SPQ fluorescence proton efflux in proteoliposomes; type: biochemical; conditions: 500 uM GTP; EYPC with or without 2.5% cardiolipin, 100 uM palmitic or oleic acid, valinomycin, pH 7.2, 25 C
UCP4 [5] = target: T5, UCP4; test: SPQ fluorescence proton efflux in proteoliposomes; type: biochemical; conditions: 500 uM GTP; EYPC with or without 2.5% cardiolipin, 100 uM palmitic or oleic acid, valinomycin, pH 7.2, 25 C
PiT (PiT-B) = target: T6, PiT (PiT-B); test: SPQ fluorescence proton efflux in proteoliposomes; type: biochemical; conditions: EYPC liposomes, valinomycin, pH 7.2, 25 C
ANT1 [6] = target: T1, ANT1; test: SPQ fluorescence proton efflux in proteoliposomes; type: biochemical; parameters: gene SLC25A4; full length, N-terminal His6 tag kept, pelB leader removed; E. coli membranes; mainly monomer in liposomes; conditions: EYPC liposomes, valinomycin, pH 7.2, 25 C
UCP4 [7] = target: T5, UCP4; test: SPQ fluorescence proton efflux in proteoliposomes; type: biochemical; conditions: EYPC liposomes, valinomycin, pH 7.2, 25 C
UCP2 [8] = target: T4, UCP2; test: SPQ fluorescence proton efflux in proteoliposomes; type: biochemical; conditions: EYPC liposomes, valinomycin, pH 7.2, 25 C
[9] = target: the molecule itself; test: semi-native SDS-PAGE; single purified protein reconstituted in liposomes of egg yolk extract (EYPC, ~60% PC) without added cardiolipin; 0.1% SDS in gel and running buffer, samples not heated; Coomassie staining
[10] = target: B2; test: semi-native SDS-PAGE; two purified monomeric proteins co-reconstituted 1:1 in liposomes (UCP4:ANT1 also 3:1 and 1:3), regardless of lipid composition (EYPC with or without 2.5% CL); Coomassie staining; conditions: both partners purified
[11] = target: B3; test: as above; conditions: both partners purified
[12] = 100 uM palmitic acid as activator

Molecule: Nc1ncnc2c1ncn2[C@@H]1O[C@H](COP(=O)(O)OP(=O)(O)OP(=O)(O)O)[C@@H](O)[C@H]1O [ATP]
% inhibition at 500 uM (ANT1 [1]): proton transport was inhibited by ATP more effectively than by GTP
% inhibition at 500 uM [2]: ATP significantly inhibited combinations of UCP2 or UCP4 with ANT1
% inhibition at 500 uM [3]: ATP significantly inhibited combinations of UCP2 or UCP4 with ANT1

Molecule: Nc1nc2c(ncn2[C@@H]2O[C@H](COP(=O)(O)OP(=O)(O)OP(=O)(O)O)[C@@H](O)[C@H]2O)c(=O)[nH]1 [GTP]
% inhibition at 500 uM (UCP2 [4]): GTP is overall a more effective inhibitor than ATP of UCP2 and UCP4
% inhibition at 500 uM (UCP4 [5]): GTP is overall a more effective inhibitor than ATP of UCP2 and UCP4

Molecule: CCCCCCCC/C=C\CCCCCCCC(=O)O [OA, oleic acid]
SPQ fluorescence proton efflux in proteoliposomes (PiT (PiT-B); 100 uM oleic acid as activator): For each individual protein, OA was a significantly more potent activator than PA
fatty-acid-activated proton transport (qualitative finding) (ANT1 [6]; 100 uM oleic acid as activator): For each individual protein, OA was a significantly more potent activator than PA
SPQ fluorescence proton efflux in proteoliposomes (UCP4 [7]; 100 uM oleic acid as activator): For each individual protein, OA was a significantly more potent activator than PA
fatty acid-activated proton efflux (qualitative) (UCP2 [8]; 100 uM oleic acid as activator): For each individual protein, OA was a significantly more potent activator than PA

Molecule: CCCCCCCCCCCCCCCC(=O)O [PA, palmitic acid]
SPQ fluorescence proton efflux in proteoliposomes (PiT (PiT-B); [12]): both OA and PA interacted with all proteins and their combinations
fatty-acid-activated proton transport (qualitative finding) (ANT1 [6]; [12]): both OA and PA interacted with all proteins and their combinations
SPQ fluorescence proton efflux in proteoliposomes (UCP4 [7]; [12]): both OA and PA interacted with all proteins and their combinations
fatty acid-activated proton efflux (qualitative) (UCP2 [8]; [12]): both OA and PA interacted with all proteins and their combinations

Molecule: B1
stoichiometry N [9]: 2
binding result [10]: binds
binding result [11]: binds

Molecule: B2
stoichiometry N [9]: 4
binding result [11]: binds

Molecule: B3
stoichiometry N [9]: 4

Reference: article PMC12682859, “Interconnected roles of mitochondrial carrier proteins ANT, PiT, and UCPs in proton transport” (Frontiers in Molecular Biosciences, 2025)
